One test deals with PDK1 (Homo sapiens (Human), UniProt O15530). As to the kind of experiment: PDK1 kinase assay (coupled PDK1/AKT/FAM-crosstide assay, IMAP fluorescence polarization). The class given is biochemical. A digest of the protocol: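 Coupled cascade: 0.75 nM PDK1 (51-359) → 10 nM AKT2 (140-467-PIFtide) → 100 nM FAM-crosstide. ATP 40 μM, 25° C, 30 min. IMAP FP (ex 485/em 530), 2 h binding. ΔmP vs conc, 4-param fit.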
(In general: Polarisation of emitted light reports the rotation of a fluorescent probe.)

Test [1] deals with phospho-akt (Thr308) in PC-3 cells. As to the kind of experiment: Inhibition of phospho-akt (Thr308) in PC-3 cells, MSD phospho-akt 308 ELISA kit. The test is classed as cell-based. The conditions noted are these: Homo sapiens, 2 hours, no serum, read-out: EC50. A digest of the protocol:
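PC-3 cells were seeded overnight in growth medium with 10% FBS, then exposed to compound serially diluted threefold in serum-free medium for 2 hours. Lysates were captured overnight at 4 degrees on MSD plates and phospho-Akt Thr308 was detected electrochemiluminescently, against DMSO high and 5 μM wortmannin low controls.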
(In general: ELISA stands for enzyme-linked immunosorbent assay.)

[2] abbreviates: inhibition of phospo-PDK1 in vitro.
The mark [3] stands for this setting: inhibition of P308 Akt in PC-3 cells, MSD.
The mark [4] stands for this setting: inhibition of P308 Akt in PC-3 cells using MSD.

The values below come from patent US10030016B2 (Sunesis Pharmaceuticals, Inc., priority 2009, dated 2018).

Where two headings read alike, the source gives them in different places.

PDK1, sequence (O15530 51-359): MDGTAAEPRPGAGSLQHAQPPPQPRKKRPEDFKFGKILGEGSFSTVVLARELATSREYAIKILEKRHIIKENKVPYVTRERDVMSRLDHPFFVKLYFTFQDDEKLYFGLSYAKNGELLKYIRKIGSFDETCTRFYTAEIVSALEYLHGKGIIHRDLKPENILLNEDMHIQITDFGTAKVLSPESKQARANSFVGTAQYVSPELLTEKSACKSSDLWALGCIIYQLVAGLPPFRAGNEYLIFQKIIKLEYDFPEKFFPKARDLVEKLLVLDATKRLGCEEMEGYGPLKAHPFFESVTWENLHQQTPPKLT

Broadly, the IC50 is the concentration needed to halve the response being measured. High values mean a need for much substance, low ones inhibition by little substance. Usually EC50 stands for the concentration at which the effect is half-maximal. Compound `C[C@H](NC(=O)c1cccnc1NCc1ccc(-c2ccc3ncc4c(c3c2)n(C)c(=O)n4C)s1)c1ccc(F)cc1` [Example 2.17, (S)-2-(((5-(1,3-dimethyl-2-oxo-2,3-dihydro-1H-imidazo(4,5-c]quinolin-8-yl)thiophen-2-yl)methyl)amino)-N-(1-(4-fluoro-phenyl)ethyl)nicotinamide] showed an IC50 against PDK1 (setting [2]) greater than 5000 nM. Also, the EC50 in test [1] (setting [3]) is greater than 10000 nM.

In turn, `O=C(NCc1ccc(F)c(F)c1)c1cccnc1NCc1cc(-c2c[nH]c3ncccc23)ccn1` [Example 18.1, 2-((4-(1H-pyrrolo[2,3-b]pyridin-3-yl)pyridin-2-ylmethyl)amino)-N-(3,4-difluorobenzyl)nicotinamide] yielded a half-inhibitory concentration (IC50) against PDK1 (setting [2]) of less than 100 nM. Moreover, the EC50 in test [1] (setting [3]) lay within 1000 to 10000 nM.

For the compound `C[C@H](NC(=O)c1cc(C#N)cnc1NCc1ccc(-c2cnc(N)c(C(=O)NCCO)n2)cc1)c1ccc(F)cc1` [Example 215, (S)-3-amino-6-(4-((5-cyano-3-(1-(4-fluorophenyl)ethylcarbamoyl)pyridin-2-ylamino)methyl)phenyl)-N-(2-hydroxyethyl) pyrazine-2-carboxamide], the IC50 against PDK1 (inhibition of PDK1 in vitro) is less than 100 nM. Besides, the 50% effective concentration (EC50) in test [1] (setting [4]) is less than 1000 nM.

Take `C[C@H](NC(=O)c1cc(C#N)cnc1NCc1ccc(-c2ccc3ncnc(N)c3c2)s1)c1ccc(F)cc1` [Example 8.8.3, 2-({[5-(4-aminoquinazolin-6-yl)thiophen-2-yl]methyl}amino)-5-cyano-N-[(1S)-1-(4-fluorophenyl)ethyl] pyridine-3-carboxamide]: at PDK1 (setting [2]), the IC50 was less than 100 nM. Further, in test [1] (setting [3]), the EC50 is less than 1000 nM.

Turning to `CC(C)Oc1cc(CNc2ncccc2C(=O)NCc2ccc(F)c(F)c2)cc(-c2ccc3ncncc3c2)c1` [Example 5.3, N-(3,4-difluorobenzyl)-2-(3-isopropoxy-5-(quinazolin-6-yl)benzylamino) nicotinamide], at PDK1 (setting [2]), the IC50 lay within 100 to 1000 nM. Further, the EC50 in test [1] (setting [3]) is greater than 10000 nM.

The compound `CNC(=O)c1nc(-c2ccc(CNc3ncc(C#N)cc3C(=O)N[C@@H](C)c3ccc(F)cc3)cc2)cnc1N` [Example 216, (S)-3-amino-6-(4-((5-cyano-3-(1-(4-fluorophenyl)ethylcarbamoyl)pyridin-2-ylamino)methyl)phenyl)-N-methylpyrazine-2-carboxamide] gave a concentration for half-maximal inhibition (IC50) against PDK1 (inhibition of PDK1 in vitro) of less than 100 nM. The EC50 in test [1] (setting [4]) is less than 1000 nM.

At PDK1 (setting [2]), `Nc1ncnc2ccc(-c3ccc(CNc4ncc(S(N)(=O)=O)cc4C(=O)NCc4ccc(F)c(F)c4)s3)cc12` [Example 8.7.2, 2-({[5-(4-aminoquinazolin-6-yl)thiophen-2-yl]methyl}amino)-N-(3,4-difluorobenzyl)-5-sulfamoylpyridine-3-carboxamide] yielded a half-inhibitory concentration (IC50) of less than 100 nM. In test [1] (setting [3]), the EC50 lay in the range of 1000 to 10000 nM.

In the case of `C[C@H](NC(=O)c1nc(C#N)cnc1NCc1ccc(-c2cnc(N)c(N3CCC[C@H](N)C3)n2)cc1)c1ccc(F)c(F)c1` [Example 198], the half-inhibitory concentration (IC50) on PDK1 (inhibition of PDK1 in vitro) is less than 100 nM. Besides, the concentration for a half-maximal effect (EC50) in test [1] (setting [4]) was less than 1000 nM.

`C[C@H](NC(=O)c1cccnc1NCc1ccc(-c2cc3c(N)ncnc3cn2)s1)c1ccc(F)c(F)c1` [Example 7.16, 2-({[5-(4-aminopyrido[3,4-d]pyrimidin-6-yl)thiophen-2-yl]methyl}amino)-N-[(1S)-1-(3,4-difluorophenyl)ethyl] pyridine-3-carboxamide] had a 50% inhibitory concentration (IC50) at PDK1 (setting [2]) of 100 to 1000 nM. Further, the concentration giving a half-maximal response (EC50) in test [1] (setting [3]) fell in the range of 1000 to 10000 nM.

On PDK1 (setting [2]), `Cc1nc(/C=C2\C(=O)Nc3cc(/C=C/CNc4ncccc4C(=O)NCc4ccc(F)c(F)c4)ccc32)c[nH]1` [Example 15.8, N-(3,4-Difluoro-benzyl)-2-((E)-3-{3-[1-(2-methyl-1H-imidazol-4-yl)-meth-(Z)-ylidene]-2-oxo-2,3-dihydro-1H-indol-6-yl}-allylamino)-nicotinamide] registered a half-inhibitory concentration (IC50) of less than 100 nM. Besides, the EC50 in test [1] (setting [3]) is less than 1000 nM.

`Nc1ncnc2ccc(-c3ccc(CNc4ncc(NC(=O)C(F)(F)F)cc4C(=O)NCc4ccc(F)c(F)c4)s3)cc12` [Example 8.5.6, 2-({[5-(4-aminoquinazolin-6-yl)thiophen-2-yl]methyl}amino)-N-(3,4-difluorobenzyl)-5-[(trifluoroacetyl)amino] pyridine-3-carboxamide] registered a 50% inhibitory concentration (IC50) against PDK1 (setting [2]) of 100 to 1000 nM. The concentration giving a half-maximal response (EC50) in test [1] (setting [3]) is 1000 to 10000 nM.
